Experimental data taken from PubChem BioAssay AID651717 (Broad Institute, 2012).

Each compound was assayed on mESC Bmi1-luciferase reporter, firefly/renilla ratio, 24 h (assay: compounds raising Bmi1 reporter signal – mouse embryonic stem cells, luciferase, cherry-pick, esBAF inhibitor project, dose response (AID 651717);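 further: luciferase knocked into Bmi1 locus with EF-1a renilla as cell number control; rising ratio signals esBAF inhibition which derepresses Bmi1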).
In the case of c1ccc(Nc2nc(-c3ccncc3)cs2)cc1, the AC40 is reported as 2.71 µM. O=C(Nc1nc2c(s1)CCc1ccccc1-2)c1cccs1 gave an AC40 of 0.9 µM. With Nc1nc(SCc2ccccc2)c2ncn(C3CCCCC3)c2n1 the AC40 was 2.09 µM. Compound CN(Cc1nccs1)C(=O)c1ccc2nc(Cc3ccccc3F)oc2c1 has an AC40 of 0.952 µM. With CN(C)c1ccc(N=Nc2ccccc2C(=O)OCC(=O)Nc2ccccc2C(F)(F)F)cc1 the AC40 was 4.61 µM. Cc1cccc(-c2nc(C#N)c(N3CCCCCC3)o2)c1 gave an AC40 of 16.7 µM. In the case of NCC(=O)c1ccccc1, the AC40 is reported as 23 µM. For COc1ccc(-c2csc(Nc3cccc(C)n3)n2)cc1OC, the AC40 was 1.44 µM. Cc1ccc(NC(=O)Nc2cccc(C)n2)c(C)c1 gave an AC40 of 6.01 µM. Cc1cc(OCc2cc(C(=O)N(C)C(C)c3ccccn3)no2)cc(C)c1Cl (stereo not drawn) was tested, and the AC40 was 14.7 µM. In the case of Cc1ccccc1C(=O)c1cccn1CC(=O)NCc1cccc(Cl)c1, the AC40 is reported as 13.6 µM. With Cc1ccc(Cn2cc(-c3ccccc3)nn2)cc1 the AC40 was 7.62 µM. Work on CS(=O)(=O)N1CCN(c2nc3ccccc3s2)CC1 yielded an AC40 of 1.24 µM. C/C(=N\NC(=O)c1cccs1)c1ccc2ccccc2c1 gave an AC40 of 12 µM. In the case of COc1cc2ccccc2cc1C(=O)NC1CCC(C)CC1 (stereo not drawn), the AC40 is reported as 8.67 µM. Cc1ccc(C)c(OCc2nc3ccccc3[nH]2)c1 gave an AC40 of 5.29 µM. With COc1ccc(-c2ccc(OC)cc2)cc1 the AC40 was 4.64 µM. CC(Cc1cccs1)NC(=O)c1cccc(Cl)c1 (stereo not drawn) was tested, and the AC40 was 2.76 µM. OC(c1cccc(F)c1)c1ncc(-c2ccc3ccccc3c2)[nH]1 (stereo not drawn) showed an AC40 of 9.76 µM. Cc1csc(-c2ccc3cc(Cl)cc(Cl)c3n2)n1 gave an AC40 of 5.82 µM. Compound CC(=O)c1ccc(NC(=O)CNCc2cccs2)cc1 has an AC40 of 12.3 µM. For COc1cccc(OCc2cc(C(=O)N3CCN(C(C)=O)CC3)no2)c1, the AC40 was 3.15 µM. In the case of CCC(C)c1ccc(NC(=O)C2CC2)cc1 (stereo not drawn), the AC40 is reported as 5.85 µM. For C=CCNc1nc(-c2ccc(O)c(C(N)=O)c2)cs1, the AC40 was 6.2 µM. Compound CCCCc1nc2cc(C(=O)N3CCCCC3C(=O)OC)ccc2o1 (stereo not drawn) has an AC40 of 13 µM. O=C(Nc1ccccc1)c1cc(C2CCCN(C(=O)c3ccccc3)C2)on1 (stereo not drawn) showed an AC40 of 4.54 µM. Compound O=C(Cn1cc(C(F)(F)F)cc(Cl)c1=O)NCc1ccc(F)cc1 has an AC40 of 7.38 µM. In the case of Cc1cc(Cl)nc(NC(=O)Nc2cccc(Cl)c2)n1, the AC40 is reported as 0.66 µM. With CCCC(=O)Nc1nc(-c2ccc(OC)cc2)cs1 the AC40 was 7.09 µM. Work on CCOC(=O)C1=C(CSc2nc(-c3ccccc3)ccc2C#N)OC(N)=C(C#N)C1c1ccc(OC)cc1 (stereo not drawn) yielded an AC40 of 6.12 µM. Cc1ccc(NC(=O)CN2C(=O)N/C(=C/c3ccccc3OCc3cccc(C(=O)O)c3)C2=O)cc1 was tested, and the AC40 was 2.65 µM. COc1ccc(-c2cc(C(=O)Nc3ccc(C(N)=O)cc3)c3ccccc3n2)cc1 showed an AC40 of 4.1 µM. Work on COc1ccc2nc3ccccc3[n+]([O-])c2c1 yielded an AC40 of 2.1 µM. Cc1cccc(N/N=C/c2ccc(C)s2)c1 gave an AC40 of 2.91 µM. Work on CC(C)c1ccc(C(O)c2cnc(C(C)C)n2C)cc1 (stereo not drawn) yielded an AC40 of 4.11 µM. COc1ccc(-c2cc3ccccc3s2)cc1[C@H]1[C@H]2C=CC[C@@H](C)[C@@H]2C(=O)N1Cc1ccccc1 showed an AC40 of 1.53 µM. Work on Cc1ccc(OCc2cc(C(=O)N3CCC(c4ccccc4Cl)C3)no2)cc1C (stereo not drawn) yielded an AC40 of 7.33 µM. COc1ccc2c(c1OC)C(=O)N1c3ccccc3SC21 (stereo not drawn) showed an AC40 of 0.438 µM. With COCOc1ccc(-c2cc(=O)c3c(O)cc(OCOC)cc3o2)cc1 the AC40 was 8.4 µM. COc1ccc(NC(=O)Nc2cccc(C)n2)cc1 gave an AC40 of 3.45 µM. With COc1cccc(NC(=O)c2ccccc2Br)c1 the AC40 was 4.25 µM. In the case of Cn1c(=NC(=O)C2CC2)sc2cc(F)cc(F)c21, the AC40 is reported as 16.6 µM. Compound CO[C@@H]1CN(C)C(=O)c2cc(NC(=O)Nc3ccc4c(c3)OCO4)ccc2OC[C@H](C)NC[C@@H]1C has an AC40 of 6.97 µM. Work on COc1ccc(CNC(=O)COc2ccccc2C(=O)c2cnn(-c3ccccc3)c2)cc1OC yielded an AC40 of 0.642 µM. With CC(=O)Nc1ccc(-c2nnc(SCC(=O)Nc3ccc4c(c3)oc3ccccc34)n2C)cc1 the AC40 was 6.97 µM. Cc1ccc(-c2nc(COC(=O)c3c(C)noc3C)cs2)cc1 was tested, and the AC40 was 4.93 µM. For COc1ccc(OCc2cc(C(=O)NC(C)c3nc(C)cs3)no2)c(Cl)c1 (stereo not drawn), the AC40 was 10.4 µM. With CC1CCN(C(=O)CCc2nnc(-c3ccccc3)o2)CC1 the AC40 was 4.2 µM. In the case of C=CCn1cccc(C(=O)Nc2ccc(Cl)cc2)c1=O, the AC40 is reported as 3.88 µM. Work on CCC(=O)c1ccc(N2CCCC2)c(F)c1 yielded an AC40 of 6.47 µM. Work on COc1ccccc1CCC(=O)Nc1nc2ccccc2[nH]1 yielded an AC40 of 3 µM. For Fc1cccc(-c2ncc(-c3ccccc3)o2)c1, the AC40 was 0.768 µM. For O=C(O)c1cncc(C#CCC2CCCCC2)c1, the AC40 was 15.6 µM. CCn1c(COc2ccc(OC)cc2)nc2ccccc21 was tested, and the AC40 was 2.81 µM. In the case of CC1CCCC(C)N1CCCNC(=O)c1ccc2nc(N3CCCCC3)sc2c1 (stereo not drawn), the AC40 is reported as 9 µM. In the case of COc1ccccc1-c1nc(SCc2ccccn2)n[nH]1, the AC40 is reported as 8.67 µM. In the case of CCN(CC)S(=O)(=O)c1ccc2c(c1)nc(-c1ccccn1)n2C, the AC40 is reported as 11.1 µM. In the case of COc1ccc(-c2coc3cc(OC(C)=O)ccc3c2=S)cc1, the AC40 is reported as 0.794 µM. For CC1CCC(NC(=O)c2cc3ccccc3cc2O)CC1 (stereo not drawn), the AC40 was 0.967 µM. Work on COC(=O)Cc1ccc(OCc2ccc(Cl)nc2)cc1 yielded an AC40 of 6.74 µM. O=C(Nc1nccs1)C(=O)c1c[nH]c2ccccc12 showed an AC40 of 0.751 µM. In the case of COC(=O)C1CCc2c(ccc3c2CCCC3)C1=O (stereo not drawn), the AC40 is reported as 4.54 µM. COc1ccccc1C(=O)Nc1cccc2cccnc12 gave an AC40 of 13.9 µM.
